28 compounds from ChEMBL document CHEMBL4613209, “Quinolone hybrids and their anti-cancer activities: An overview” (Eur J Med Chem, 2019) can be followed below.

The structures appear in SMILES notation. Bounds are passed on as bounds.

In assay [1] the test system is MCF7. The assay is described as follows: Cytotoxicity against human MCF7 cells assessed as reduction in cell viability. It counts as functional, cell-based.
A further assay concerns SW-620. The assay is described as follows: Cytotoxicity against human SW620 cells assessed as reduction in cell viability. It counts as functional, cell-based.
The test system of another assay is MGC-803. The assay can be described thus: Cytotoxicity against human MGC803 cells assessed as reduction in cell viability. It counts as functional, cell-based.
In a further assay the test system is PC-3. The assay is described as follows: Cytotoxicity against human PC3 cells assessed as reduction in cell viability. The class given is functional, cell-based.
The next assay has as its system NCI-H460. The assay is described as follows: Cytotoxicity against human NCI-H460 cells assessed as reduction in cell viability. The class given is functional, cell-based.
The subject of a further assay is HepG2. The assay is described as follows: Cytotoxicity against human HepG2 cells assessed as reduction in cell viability. It counts as functional, cell-based.
Another assay has as its system GES1. The assay can be described thus: Cytotoxicity against human GES-1 cells assessed as reduction in cell viability. The class given is cell-based.
For assay [2], the system named is MCF7. The assay is described as follows: Cytotoxicity against human MCF7 cells assessed as reduction in cell viability by MTT assay. It counts as functional, cell-based. A general note: Tetrazolium dyes change colour on reduction, which living cells bring about.
The test system of another assay is SK-MEL3. The assay is described as follows: Cytotoxicity against human SK-MEL-3 cells assessed as reduction in cell viability by MTT assay. It counts as functional, cell-based.
The test system of a further assay is A-431. The assay is described as follows: Cytotoxicity against human A431 cells assessed as reduction in cell viability by MTT assay. The class given is functional, cell-based.
For a further assay, the system named is EJ. The assay is described as follows: Cytotoxicity against human EJ cells assessed as reduction in cell viability by MTT assay. The class given is functional, cell-based.
The next assay has as its system SW480. The assay is described as follows: Cytotoxicity against human SW480 cells assessed as reduction in cell viability by MTT assay. The class given is functional, cell-based.

Consider `C[C@H]1COc2c(N3CCN(C)CC3)c(F)cc3c(=O)c(-c4nnc(NC(=O)CCCCCCC(=O)NO)s4)cn1c23`, for which the IC50 in the assay with MCF7 [1], with SW-620, with MGC-803, in the assay on PC-3, in the assay on NCI-H460 and in the assay on HepG2 was 600 to 3100 nM in each case. Also, the IC50 with GES1 was over 100000 nM.

Consider `CCn1cc(C(=O)O)c(=O)c2cc(F)c(N3CCN(C/C(=N/OC)c4cccs4)CC3)nc21`, for which the IC50 in the assay with MCF7 [2], in the assay with SK-MEL3, in the assay on A-431, in the assay with EJ and in the assay on SW480 was 2000 to 131000 nM in each case.

`CCn1cc(C(=O)O)c(=O)c2cc(F)c(N3CCN(C/C(=N/O)c4cccs4)CC3)nc21`: the IC50 in the assay with MCF7 [2], with SK-MEL3, in the assay on A-431, in the assay with EJ and in the assay with SW480 was 2000 to 131000 nM in each case.

As to `C[C@H]1COc2c(N3CCN(C)CC3)c(F)cc3c(=O)c(-c4nnc(NC(=O)CCCCCCC(=O)Nc5ccccc5N)s4)cn1c23`, the IC50 with MCF7 [1], in the assay with SW-620, with MGC-803, in the assay with PC-3, with NCI-H460 and with HepG2 was 46 to 203 nM in each case. In addition, the IC50 in the assay with GES1 is over 81500 nM.

With `C[C@H]1COc2c(N3CCN(C)CC3)c(F)cc3c(=O)c(-c4nnc(NC(=O)CCCC(=O)NO)s4)cn1c23`, the IC50 in the assay on MCF7 [1], in the assay with SW-620, in the assay on MGC-803, in the assay on PC-3, in the assay on NCI-H460 and with HepG2 was 19 to 127 nM in each case. The IC50 in the assay with GES1 was over 81500 nM.

On to `C[C@H]1COc2c(N3CCN(C)CC3)c(F)cc3c(=O)c(-c4nnc(NC(=O)CCCCCCC(=O)O)s4)cn1c23`, for which the IC50 in the assay with MCF7 [1], in the assay with SW-620, with MGC-803, in the assay on PC-3, in the assay on NCI-H460 and in the assay on HepG2 was 1100 to 14300 nM each time. In addition, the IC50 with GES1 is over 81500 nM.

`C[C@H]1COc2c(N3CCN(C)CC3)c(F)cc3c(=O)c(-c4nnc(NC(=O)CCCCCC(=O)O)s4)cn1c23`: the IC50 in the assay with MCF7 [1], in the assay with SW-620, with MGC-803, with PC-3, in the assay with NCI-H460 and with HepG2 was 1100 to 14300 nM throughout. Moreover, the IC50 in the assay with GES1 is over 81500 nM.

On to `C[C@H]1COc2c(N3CCN(C)CC3)c(F)cc3c(=O)c(-c4nnc(NC(=O)CCCCC(=O)O)s4)cn1c23`, for which the IC50 with MCF7 [1], in the assay on SW-620, with MGC-803, in the assay on PC-3, in the assay with NCI-H460 and in the assay on HepG2 was 1100 to 14300 nM each time. For the same compound, the IC50 with GES1 was over 81500 nM.

As for `CCn1cc(C(=O)O)c(=O)c2cc(F)c(N3CCN(C/C(=N/OC)c4cccs4)CC3)cc21`, the half-inhibitory concentration (IC50) in the assay with MCF7 [2], with SK-MEL3, with A-431, in the assay on EJ and in the assay with SW480 was 2000 to 131000 nM in each case.

Regarding `C[C@H]1COc2c(N3CCN(C)CC3)c(F)cc3c(=O)c(-c4nnc(NC(=O)CCCCCC(=O)NO)s4)cn1c23`, the IC50 in the assay on MCF7 [1], in the assay on SW-620, in the assay with MGC-803, in the assay with PC-3, with NCI-H460 and in the assay with HepG2 was 19 to 127 nM each time. In the assay with GES1, the IC50 is over 81500 nM.

`CCn1cc(C(=O)O)c(=O)c2cc(F)c(N3CCN(CC(=O)c4cccs4)CC3)nc21`: the IC50 with MCF7 [2], with SK-MEL3, in the assay with A-431, in the assay on EJ and with SW480 was 2000 to 131000 nM each time.

For `CCn1cc(C(=O)O)c(=O)c2cc(F)c(N3CCN(CC(=O)c4cccs4)CC3)cc21`, the IC50 in the assay on MCF7 [2], in the assay with SK-MEL3, in the assay with A-431, with EJ and with SW480 was 2000 to 131000 nM in each case.

On to `CCn1cc(C(=O)O)c(=O)c2cc(F)c(N3CCN(C/C(=N/OCc4ccccc4)c4cccs4)CC3)cc21`, for which the IC50 in the assay on MCF7 [2], in the assay on SK-MEL3, in the assay on A-431, in the assay with EJ and in the assay with SW480 was 2000 to 131000 nM in each case.

Turning to `C[C@H]1COc2c(N3CCN(C)CC3)c(F)cc3c(=O)c(-c4nnc(NC(=O)CCCCC(=O)NO)s4)cn1c23`, the IC50 with MCF7 [1], in the assay with SW-620, with MGC-803, in the assay with PC-3, with NCI-H460 and in the assay with HepG2 was 19 to 127 nM each time. Also, the IC50 in the assay with GES1 was over 81500 nM.

In the case of `O=C(O)c1cn(C2CC2)c2cc(N3CCN(C/C(=N/OCc4ccccc4)c4cccs4)CC3)c(F)cc2c1=O`, the IC50 in the assay on MCF7 [2], in the assay with SK-MEL3, in the assay on A-431, with EJ and with SW480 was 2000 to 131000 nM each time.

Regarding `C[C@H]1COc2c(N3CCN(C)CC3)c(F)cc3c(=O)c(-c4nnc(NC(=O)CCCCCCCC(=O)NO)s4)cn1c23`, the IC50 in the assay on MCF7 [1], with SW-620, with MGC-803, with PC-3, in the assay with NCI-H460 and with HepG2 was 19 to 127 nM throughout. Further, the IC50 with GES1 was over 81500 nM.

For the compound `CCn1cc(C(=O)O)c(=O)c2cc(F)c(N3CCN(C/C(=N/OCc4ccccc4)c4cccs4)CC3)nc21`, the IC50 in the assay on MCF7 [2], with SK-MEL3, in the assay on A-431, with EJ and with SW480 was 2000 to 131000 nM in each case.

Take `C[C@H]1COc2c(N3CCN(C)CC3)c(F)cc3c(=O)c(-c4nnc(NC(=O)CCCCC(=O)Nc5ccccc5N)s4)cn1c23`: the IC50 in the assay with MCF7 [1], in the assay with SW-620, with MGC-803, in the assay on PC-3, in the assay on NCI-H460 and with HepG2 was 46 to 203 nM each time. In addition, the IC50 with GES1 is over 81500 nM.

Turning to `CCn1cc(C(=O)O)c(=O)c2cc(F)c(N3CCN(C/C(=N/OCc4ccccc4)c4ccc(Cl)s4)CC3)cc21`, the IC50 in the assay with MCF7 [2], with SK-MEL3, in the assay on A-431, in the assay on EJ and with SW480 was at most 20000 nM in each case.

In the case of `CCn1cc(C(=O)O)c(=O)c2cc(F)c(N3CCN(C/C(=N/OCc4ccccc4)c4ccc(Cl)s4)CC3)nc21`, the 50% inhibitory concentration (IC50) in the assay with MCF7 [2], with SK-MEL3, in the assay with A-431, in the assay on EJ and in the assay with SW480 was at most 20000 nM in each case.

`C[C@H]1COc2c(N3CCN(C)CC3)c(F)cc3c(=O)c(-c4nnc(NC(=O)CCCCCCCCC(=O)O)s4)cn1c23`: the IC50 in the assay on MCF7 [1], with SW-620, with MGC-803, with PC-3, with NCI-H460 and in the assay with HepG2 was 1100 to 14300 nM throughout. Moreover, the IC50 with GES1 was over 81500 nM.

For `O=C(CN1CCN(c2cc3c(cc2F)c(=O)c(C(=O)O)cn3C2CC2)CC1)c1cccs1`, the 50% inhibitory concentration (IC50) with MCF7 [2], with SK-MEL3, in the assay with A-431, in the assay on EJ and with SW480 was 2000 to 131000 nM each time.

Regarding `C[C@H]1COc2c(N3CCN(C)CC3)c(F)cc3c(=O)c(-c4nnc(NC(=O)CCCCCCCC(=O)O)s4)cn1c23`, the IC50 in the assay with MCF7 [1], in the assay with SW-620, in the assay with MGC-803, in the assay on PC-3, in the assay with NCI-H460 and in the assay on HepG2 was 1100 to 14300 nM throughout. Also, the IC50 in the assay on GES1 is over 81500 nM.

Turning to `C[C@H]1COc2c(N3CCN(C)CC3)c(F)cc3c(=O)c(-c4nnc(NC(=O)CCCCCCCCC(=O)NO)s4)cn1c23`, the IC50 in the assay with MCF7 [1], in the assay with SW-620, with MGC-803, in the assay with PC-3, with NCI-H460 and in the assay with HepG2 was 19 to 127 nM each time. In the assay on GES1, the IC50 is over 81500 nM.

As for `C[C@H]1COc2c(N3CCN(C)CC3)c(F)cc3c(=O)c(-c4nnc(NC(=O)CCCC(=O)O)s4)cn1c23`, the IC50 in the assay on MCF7 [1], in the assay with SW-620, with MGC-803, in the assay on PC-3, in the assay with NCI-H460 and in the assay with HepG2 was 1100 to 14300 nM in each case. Also, the IC50 in the assay with GES1 was over 81500 nM.

As for `C[C@H]1COc2c(N3CCN(C)CC3)c(F)cc3c(=O)c(-c4nnc(NC(=O)CCCCCC(=O)Nc5ccccc5N)s4)cn1c23`, the IC50 in the assay on MCF7 [1], in the assay with SW-620, in the assay on MGC-803, in the assay on PC-3, in the assay on NCI-H460 and in the assay with HepG2 was 46 to 203 nM throughout. For the same compound, the concentration for half-maximal inhibition (IC50) in the assay on GES1 is over 81500 nM.

In the case of `C[C@H]1COc2c(N3CCN(C)CC3)c(F)cc3c(=O)c(-c4nnc(NC(=O)CCCC(=O)Nc5ccccc5N)s4)cn1c23`, the IC50 in the assay with MCF7 [1], in the assay with SW-620, with MGC-803, in the assay with PC-3, in the assay with NCI-H460 and in the assay on HepG2 was 46 to 203 nM in each case. Also, the IC50 in the assay with GES1 was over 81500 nM.

Take `CCn1cc(C(=O)O)c(=O)c2cc(F)c(N3CCNCC3)nc21` [ENOXACIN]: the concentration for half-maximal inhibition (IC50) with MCF7 [2], in the assay with SK-MEL3, with A-431, in the assay with EJ and in the assay on SW480 was 137000 to 238000 nM each time.

The IC50 is the midpoint of a concentration-inhibition curve.
